Test results: publication PMC5983305, “Bioactive Pyridone Alkaloids from a Deep-Sea-Derived Fungus Arthrinium sp. UJNMF0008” (Marine Drugs, 2018)

What was measured:
[1] = system: Staphylococcus aureus ATCC 25923; experiment: Antimicrobial assay, liquid growth inhibition in 96-well microplates; assay type: cell-based; settings: Staphylococcus aureus ATCC25923; OD 600 nm after 12 h at 37 °C; read-out: Antibacterial activity IC50, SA
Protocol: (§1) The antimicrobial activity was assayed against the Gram-positive bacterial strains Mycobacterium smegmatis ATCC 607 and Staphylococcus aureus ATCC 25923, Gram-negative Escherichia coli ATCC 8739 and Pseudomonas aeruginosa ATCC 9027 and yeast Candida albicans ATCC10231 by liquid growth inhibition in 96-well microplates. Briefly, precultures of the tested microorganisms were made by inoculating 10 mL of medium (LB medium for bacteria and YM medium for fungus) and incubated for 24 h at 37 °C for bacteria or 48 h at 28 °C for fungus. Then, the cell density was adjusted to 10^4−10^5 cfu mL^−1 by the corresponding broth. An aliquot of 200 μL of the microbial suspension was distributed in each well containing 2-fold serial dilution of the tested compounds. The plate was incubated at 37 °C for 12 h for the bacteria or at 28 °C for 48 h for the fungus, and the optical density of each well was measured at 600 nm spectrophotometrically. IC50 values were defined as the concentration of a compound resulting in a 50% decrease in the number of microbial cultures compared to the blank control. The experiment was run in three replicates.

[2] = system: Mycobacterium smegmatis ATCC 607; experiment: as above; assay type: cell-based; settings: Mycolicibacterium smegmatis; Mycobacterium smegmatis ATCC607; OD 600 nm after 12 h at 37 °C; read-out: Antibacterial activity IC50, MS
Protocol: as §1

Row | Structure (SMILES) | IC50 [1] [µM] | IC50 [2] [µM]
1 | CO/N=C(\C(=O)N[C@@H]1C(=O)N2C(C(=O)O)=C(CSc3nc(=O)c(=O)[nH]n3C)CS[C@H]12)c1csc(N)n1 [Ceftriaxone sodium, reference compound] | < 1 | < 1
2 | CC1CCC2C(C=CC(C)C2C(=O)c2c3c(c[nH]c2=O)C2(O)CCC(O)C(O)C2O3)C1 (stereo not drawn) [Compound 3, Arthpyrone F] | 8.97 | 11.4
3 | C[C@@H]1CC[C@H]2[C@H](C(=O)c3c(=O)[nH]cc4c5c(oc34)[C@H](O)[C@H](O)CC5)[C@H](C)C=C[C@@H]2C1 [Compound 4, Arthpyrone G] | 42.8 | > 50
4 | CO[C@H]1[C@H](O)CC[C@](O)(c2c[nH]c(=O)c(C(=O)[C@H]3[C@@H]4CC[C@@H](C)C[C@H]4C=C[C@H]3C)c2O)[C@@H]1O [Compound 5, Arthpyrone H] | 8.37 | 19.4
5 | CO[C@]1(c2c[nH]c(=O)c(C(=O)[C@H]3[C@@H]4CC[C@@H](C)C[C@H]4C=C[C@H]3C)c2O)CC[C@@H](O)[C@H](O)[C@H]1O [Compound 6, Arthpyrone I] | 14.1 | 35.3
6 | CC1CCC2C(C=CC(C)C2C(=O)c2c(O)c(C3(O)CCC(O)C4OC43)c[nH]c2=O)C1 (stereo not drawn) [Compound 9, apiosporamide] | 1.66 | 2.2
